Consider one molecule from US20260108547A1, “LEVERAGING L-FUCOSE-MEDIATED SIGNALING TO INDUCE MONOCYTE-DERIVED DENDRITIC CELL POLARIZATION” (H. LEE MOFFITT CANCER CENTER AND RESEARCH INSTITUTE, INC., priority 2022, published 2026).

Assay [1] deals with SW1 tumors. Kind of assay: Immunofluorescent (AAL) analysis of mouse tumor tissue fucosylation. The following applies: oral L-fuc; SW1 model. Format: in vivo. As to the method: In general, paraffin-embedded FFPE tumor tissue sections (or the TMA slide) were melted at 70° C. for 30 min. The slides were further de-paraffinizeded using xylene and rehydrated in serial alcohol washes. The slides were pressure cooked at 15 PSI for 15 min in a 1×DAKO antigen retrieval buffer (Agilent Technologies (Santa Clara, CA)). The tumor sections were subject to two 5-min standing washes in PBS prior to blocking in 1× Carb-Free Blocking Solution (Vector Labs (Burlingame, CA)) for 2-3h. The slides were next washed twice and incubated with indicated lectin and/or antibodies.
For assessment of mouse tumor fucosylation, FFPE tumor sections were immunostained with FITC-conjugated AAL lectin (0.4 μg/mL, Vector Laboratories (Burlingame, CA)) and rabbit anti-Mart1+rabbit anti-S100 (melanoma marker cocktail). The slides were mounted with Vectashield+DAPI (Vector Laboratories (Burlingame, CA)). Four representative microscopy images per tumor were acquired using a Keyence BZ-X710, and images were process and analyzed using FUI (NIH) as follows: melanoma marker-positive regions were assigned as regions of interest (ROI) in which we measured Integrated density of AAL signal. Integrated densities of control tumors were assigned as 1, and Integrated AAL density values of experimental tumors were divided by control to produce relative fold changes and plotted as column charts.

The nature of assay [2]: Mouse models of tumor growth and metastasis, dietary L-fucose supplementation. It counts as in vivo.
The next assay deals with PD-L1. Kind of assay: Flow cytometric assessment of cell surface PD-L1, human melanoma cells (WM793). It counts as cell-based. As to the method:
Indicated cells were treated for 72 h with DMSO, 250 μM fucosyltransferase inhibitor (FUTi) (Millipore Sigma (St. Louis, MO)), or 250 μM of L-fucose (Biosynth (Oak Terrace, IL)). After 72 h, cells were stained with 0.1 μM PKH26 (Millipore Sigma (St. Louis, MO)) prior to fixation in 4% formaldehyde solution. The cells were stained with anti-HLA-DRB1 and fluorescein AAL, or anti-human or anti-mouse PD-L1 overnight. The following day the cells were washed 3 times prior to adding AlexaFluor 594 donkey anti-rabbit. Cells were washed 3 times and then subject to flow cytometric analyses using a FACSCalibur (BD Biosciences (San Jose, CA)). Samples were analyzed using FlowJo analysis software (BD Biosciences (San Jose, CA)). Median values of DRB1 and AAL were normalized to PKH26 values and statistical analysis was performed using GraphPad Prism.
In general terms: In flow cytometry, cells or beads pass a laser one at a time.

For assay [3], the system named is moDCs. The assay is described as follows: moDC dendrite length, phagocytosis (bead uptake) and Fitc-dextran uptake. Format: cell-based. An excerpt:
Our preliminary studies have begun to dissect and highlight moDC signaling changes induced by L-fuc treatment. Here, we present and discuss our novel findings on L-fuc-induced DC/moDC biology, the key mechanistic signaling changes that mediate these effects, and the important translational implications of these findings for efforts aimed at increasing/enhancing intratumoral DC function and anti-tumor immune responses.
Next we wanted to determine if L-fucose enhances the function phenotype of moDCs. […] Having determined that L-fucose alters the signaling of moDCs leading to an immunostimulatory phenotype, we next sought to identify other components of DC biology that are affected. To this end we examined L-fucose-treated mature dendritic cells for changes in (FIG. 26A) dendrite length and (FIG. 26B) phagocytosis by neutral bead uptake which may correlate with differential anti-tumor capacity in the TME.

In assay [4] the test system is bone marrow-derived MCs (BMMCs). Kind of assay: BMMC / T cell ex vivo co-culture (CTV proliferation, interferon-gamma release). It counts as cell-based. The text has this:
We next sought to see how the immunostimulatory capacity of these cells was altered after L-fucose treatment by culturing L-fucose modulated, either by decreased fucosylation via 2FF or increased fucosylation by L-fuc, MCs with immature T cells to asses (FIG. 22B) proliferation by loss of CTV staining and (FIG. 22C) T cell activation as evident by interferon-gamma release.

For assay [5], the system named is SW1 tumors. Kind of assay: SW1 tumor growth in NSG (immunodeficient) mice. Format: in vivo, mouse. The text has this: All animals were housed at the Vincent A. Stabile Research building animal facility at H. Lee Moffitt Cancer Center & Research Institute, which is fully accredited by the Association for Assessment and Accreditation of Laboratory Animal Care International (AAALAC, #434), and are managed in accordance with the Guide for the Care and Use of Laboratory Animals (“The Guide”), the Animal Welfare Regulations Title 9 Code of Federal Regulations Subchapter A, “Animal Welfare”, Parts 1-3 (AWR), the Public Health Service Policy on Humane Care and Use of Laboratory Animals (PHS Policy), and by the USF Institutional Animal Care and Use Committee's Principles and Procedures of Animal Care and Use (IACUC Principles). The experiments and protocols detailed in this study received institutional approval by the Moffitt IACUC (RIS00001625). Four-to-six-week-old female C3H/HeN and male C57BL6 mice were purchased from Charles Rivers Laboratories for the indicated experiments. Four-to-six-week-old male NSG mice from the Lau laboratory breeding colony were used for the indicated experiments. Power calculations were used to determine mouse cohort sizes to detect significant changes in tumor sizes. […] Mouse tumor volumes were measured using length, width and depth divided by 2. […]

Assay [6] has as its system moDCs. The assay is described as follows: moDC cytokine production, qPCR and immunoblot of signaling pathways. Format: cell-based. An excerpt: To determine if the changes in DC polarization and CD209 expression were associated with differential signaling changes in moDCs we analyzed known suppressive and stimulatory pathways by (FIG. 25A) cytokine production and (FIG. 25B) qPCR. […] (C) To elucidate the mechanism by which L-fucose was repressing immunosuppression in moDCs we preformed immunoblot analysis of several key signaling pathways in moDC activation of cells treated +/−L-fucose and +/−maturation via LPS. Additionally, we identified transcription factors that may play a role in altering the signaling and cytokine profiles of moDC to further validate the changes in immunomodulatory activity we observe.
In general terms: Quantitative PCR measures a nucleic acid by following its amplification.

In a further assay the test system is SW1 tumor cells. Kind of assay: Co-culture of pretreated moDCs with GFP-expressing SW1 tumor cells (GFP loss, LDH release). Format: cell-based, mouse. The note with it: loss of GFP fluorescence. An excerpt:
We next sought to determine if the change in phagocytosis we observe in the bead uptake assay was accompanied with increased cytotoxic tendencies in the L-fucose-treated moDCs. To this end we co-cultured pretreated moDCs with GFP-expressing SW1 tumor cells to observe (FIG. 26C) loss of GFP fluorescence correlating with SW1 and (FIG. 26D) release of LDH as markers of cell death.
A general note: LDH leaks from cells whose membrane has failed.

Where only a bound is given, the exact number is not on record here.

Take `C[C@H](O)[C@@H](O)[C@@H](O)[C@H](O)C=O` [L-fucose]: the increased tumor fucosylation in the assay with SW1 tumors [1] is given as approximately 2 fold. In assay [2], the “blocks tumor growth and metastasis” value is reported as more than 50%. The “cell surface levels of PD-L1” value with PD-L1 is on record as “does not alter”. In addition, the “dendrite length of moDCs” value in the assay on moDCs [3] was “increased”. Besides, the “uptake of exogenous Fitc-dextran bait by L-fuc-induced moDCs” value in the assay on moDCs [3] (compared with untreated DCs) was “significantly increased rate”. The “phagocytosis of moDCs” value with moDCs [3] (neutral bead uptake) is “increased”. In addition, the “immunostimulatory capacity of treated dendritic cells (DCs)” value in assay [4] was “enhanced immunostimulatory capacity”. Also, in the assay with SW1 tumors [5], the “SW1 tumor growth in immunodeficient mice” value is reported as “did not reduce”. Besides, the “immunosuppressive signature of DCs” value in the assay on moDCs [6] (cytokine production, qPCR) is listed as “decreased immunosuppressive signature”. Also, the “iNOS and p65 activation in moDC” value in the assay with moDCs [6] (immunoblot, +/- LPS maturation) is “decreased iNOS and p65 activation”. Also, the “phenotype of moDCs in co-culture with SW1 tumor cells” value with SW1 tumor cells is “cytotoxic-like phenotype”.
